Source: the supplement of paper PMC13380429

Columns and labels:
Conditions in all cases: 72 h
Vero E6 [1] = assay: relative viability EC50 (midpoint between 100% and the lowest measured viability); higher = less toxic
Caco-2 [2] = assay: as above
U2OS [3] = assay: as above
HepG2 [4] = assay: as above
Calu-3 [5] = assay: as above
Vero E6 [6] = assay: drug sensitivity score (DSS) for viability; higher = more toxic; extreme values may be limits of the assay
Caco-2 [7] = assay: as above
U2OS [8] = assay: as above
HepG2 [9] = assay: as above
Calu-3 [10] = assay: as above
Vero E6 [11] = assay: cell viability relative to DMSO; higher = less toxic
Caco-2 [12] = assay: as above
U2OS [13] = assay: as above
HepG2 [14] = assay: as above
Calu-3 [15] = assay: as above

Row | SMILES | relative viability EC50 (Vero E6 [1]) | relative viability EC50 (Caco-2 [2]) | relative viability EC50 (U2OS [3]) | relative viability EC50 (HepG2 [4]) | relative viability EC50 (Calu-3 [5]) | drug sensitivity score (Vero E6 [6]) | drug sensitivity score (Caco-2 [7]) | drug sensitivity score (U2OS [8]) | drug sensitivity score (HepG2 [9]) | drug sensitivity score (Calu-3 [10]) | cell viability (Vero E6 [11]; 1 nM) | cell viability (Vero E6 [11]; 10 nM) | cell viability (Vero E6 [11]; 100 nM) | cell viability (Vero E6 [11]; 1000 nM) | cell viability (Vero E6 [11]; 10000 nM) | cell viability (Caco-2 [12]; 1 nM) | cell viability (Caco-2 [12]; 10 nM) | cell viability (Caco-2 [12]; 100 nM) | cell viability (Caco-2 [12]; 1000 nM) | cell viability (Caco-2 [12]; 10000 nM) | cell viability (U2OS [13]; 1 nM) | cell viability (U2OS [13]; 10 nM) | cell viability (U2OS [13]; 100 nM) | cell viability (U2OS [13]; 1000 nM) | cell viability (U2OS [13]; 10000 nM) | cell viability (HepG2 [14]; 1 nM) | cell viability (HepG2 [14]; 10 nM) | cell viability (HepG2 [14]; 100 nM) | cell viability (HepG2 [14]; 1000 nM) | cell viability (HepG2 [14]; 10000 nM) | cell viability (Calu-3 [15]; 1 nM) | cell viability (Calu-3 [15]; 10 nM) | cell viability (Calu-3 [15]; 100 nM) | cell viability (Calu-3 [15]; 1000 nM) | cell viability (Calu-3 [15]; 10000 nM)
1 | CC(=O)NCC(=O)N1[C@@H]2CC[C@H]1c1ccc(Nc3ncc(C(F)(F)F)c(NC4CCC4)n3)cc12 | 1.39 µM | 1.28 µM | 1.37 µM | 1.27 µM | > 10 µM | 5.2 | 6.2 | 9.6 | 9.7 | 0.1 | 92.6% | 98.6% | 96.6% | 82.1% | 46% | 95.9% | 89.2% | 101% | 79.3% | 40.7% | 98.6% | 97.4% | 94.4% | 67.3% | 2.9% | 93.8% | 99.6% | 84.6% | 62.4% | 3.4% | 101% | 97.7% | 99.4% | 121% | 83%
2 | CC(C)OC(=O)c1cc2c(OC[C@@H](O)CNC(C)(C)C)cccc2[nH]1 | > 10 µM | > 10 µM | > 10 µM | > 10 µM | > 10 µM | 0 | 0 | 0 | 0 | 0 | 101% | 102% | 99.6% | 93.4% | 94.2% | 92.3% | 93% | 105% | 89.5% | 103% | 96.1% | 99.3% | 96.1% | 98.3% | 91.9% | 98.2% | 103% | 102% | 95.7% | 90.4% | 114% | 102% | 91.6% | 108% | 91.3%
3 | CC(C)[C@H](NS(=O)(=O)c1ccc(-c2ccc(Br)cc2)cc1)C(=O)O | > 10 µM | > 10 µM | > 10 µM | > 10 µM | > 10 µM | 0 | 0 | 0 | 0 | 0 | 93.2% | 95.9% | 87.7% | 92.2% | 102% | 96.3% | 86.2% | 93.5% | 92.6% | 89.8% | 101% | 97.5% | 99.5% | 96.4% | 102% | 98.3% | 109% | 87.8% | 110% | 110% | 106% | 102% | 91.4% | 104% | 92.9%
4 | CC(CNS(=O)(=O)C(C)C)c1ccc(-c2ccc(C#N)cc2)cc1 (stereo not given) | > 10 µM | > 10 µM | > 10 µM | 3.06 µM | > 10 µM | 0 | 0.4 | 0.1 | 4 | 0 | 109% | 99.9% | 106% | 97.7% | 98.6% | 98% | 106% | 97.7% | 104% | 80.8% | 103% | 102% | 99.2% | 101% | 85.8% | 111% | 117% | 104% | 98.9% | 30.5% | 93.8% | 97.6% | 102% | 108% | 90.4%
5 | CNC(=O)O[C@H]1COc2ccc(N3CCN(C4COC4)CC3)cc2[C@@H]1NC(=O)c1ccc(F)cc1 | > 10 µM | > 10 µM | > 10 µM | > 10 µM | > 10 µM | 0 | 0 | 0 | 0 | 0 | 101% | 98.2% | 106% | 104% | 94.1% | 90.5% | 103% | 89.9% | 101% | 98.5% | 96.6% | 101% | 95.7% | 104% | 102% | 94.9% | 101% | 94.4% | 105% | 91.8% | 106% | 88.4% | 92.1% | 95.4% | 101%
6 | C[C@H](NC(=O)CNC(=O)c1cccc(Cl)c1)c1ccccc1 | > 10 µM | > 10 µM | > 10 µM | > 10 µM | > 10 µM | 0 | 0 | 0 | 0 | 0 | 103% | 96.2% | 96.4% | 104% | 99.1% | 100% | 102% | 96.6% | 100% | 102% | 101% | 96.8% | 99.7% | 98.1% | 101% | 102% | 107% | 98.8% | 98.6% | 101% | 91.2% | 95.1% | 96.3% | 108% | 90.8%
7 | Cc1cc(N2CCOCC2)cc2[nH]c(-c3c(NC[C@@H](O)c4cccc(Cl)c4)cc[nH]c3=O)nc12 | 1.75 µM | 1.16 µM | 1.45 µM | 0.45 µM | 1.44 µM | 4.3 | 6.2 | 7.6 | 10.1 | 6 | 89.3% | 101% | 90.6% | 90.2% | 49.9% | 102% | 93.9% | 99.4% | 76.8% | 43% | 97.2% | 97.2% | 95.9% | 78% | 22.5% | 101% | 101% | 80.2% | 58.8% | 31.2% | 89.8% | 102% | 96.7% | 81.9% | 38.3%
8 | Cc1ccc(S(=O)(=O)c2ccc([N+](=O)[O-])o2)cc1 | 3.06 µM | 2.16 µM | 1.47 µM | 2.09 µM | 2.33 µM | 5.8 | 7.6 | 9.6 | 7.8 | 7.2 | 94.6% | 99.1% | 97.9% | 98.5% | -0.1% | 97.1% | 96.6% | 105% | 87.6% | 0% | 97.5% | 95.1% | 109% | 72.4% | 0% | 84.3% | 100% | 102% | 86.7% | 0% | 98% | 89.7% | 101% | 89.9% | 0%
9 | Cc1cccc(NC(=O)c2ccc(C(F)(F)F)cc2C(=O)O)n1 | > 10 µM | > 10 µM | > 10 µM | > 10 µM | > 10 µM | 0 | 0 | 0 | 0 | 0 | 99.7% | 99.8% | 105% | 104% | 106% | 99.5% | 101% | 101% | 98% | 105% | 100% | 102% | 97% | 97% | 104% | 103% | 96.8% | 105% | 108% | 102% | 103% | 95% | 94.5% | 106% | 98.6%
10 | Cn1ncc2c(N3CCOCC3)nc(-c3cccc(O)c3)nc21 | 1.35 µM | 0.938 µM | 2.1 µM | 2.74 µM | 1.64 µM | 7 | 8.7 | 5.5 | 5.1 | 6.7 | 100% | 102% | 98.9% | 78% | 30.9% | 99.9% | 108% | 94.5% | 61.5% | 25.2% | 98.8% | 99.6% | 99.3% | 90.6% | 28.9% | 100% | 101% | 111% | 95.6% | 19.8% | 86.3% | 102% | 83.7% | 79.1% | 24.5%
11 | Ic1cncc(OC[C@@H]2CCN2)c1 | > 10 µM | > 10 µM | > 10 µM | > 10 µM | > 10 µM | 0 | 0 | 0 | 0 | 0 | 97.4% | 92.7% | 96.6% | 95.3% | 102% | 102% | 97.2% | 94% | 100% | 108% | 92.1% | 102% | 96.7% | 99.5% | 106% | 94% | 94% | 99.4% | 98% | 105% | 98.4% | 98.4% | 102% | 97% | 102%
12 | N#Cc1cccc(-c2c[nH]c3ncnc(N4CCOCC4)c23)c1 | > 10 µM | > 10 µM | > 10 µM | > 10 µM | > 10 µM | 0 | 0 | 0 | 0 | 0 | 98.1% | 96% | 98.9% | 97.7% | 95.9% | 104% | 98.2% | 105% | 107% | 118% | 106% | 99.2% | 102% | 98.5% | 105% | 89.8% | 99.8% | 102% | 105% | 106% | 99% | 104% | 103% | 99.6% | 115%
13 | NC(=O)c1ccc(-c2nc(-c3ccccn3)c(-c3ccc4c(c3)OCO4)[nH]2)cc1 | > 10 µM | > 10 µM | > 10 µM | > 10 µM | > 10 µM | 0 | 0 | 0 | 0.7 | 0 | 98.3% | 92.4% | 96.1% | 97.8% | 105% | 89.3% | 106% | 92.5% | 106% | 101% | 91.2% | 96.6% | 96% | 97.1% | 92.4% | 107% | 93.6% | 103% | 96% | 83.9% | 92.2% | 95% | 91.9% | 110% | 103%
14 | O=C(NC1CCOCC1)c1ccc(-c2cc(-c3c[nH]nc3-c3ccccn3)ccn2)cc1 | > 10 µM | > 10 µM | > 10 µM | > 10 µM | > 10 µM | 0 | 0 | 0 | 0 | 0 | 93.4% | 103% | 98.8% | 107% | 102% | 91% | 97.2% | 100% | 95.7% | 93.9% | 98.2% | 98.4% | 100% | 94.4% | 92.2% | 96.2% | 99.9% | 94.8% | 104% | 93.8% | 101% | 120% | 103% | 99.6% | 108%
